Test [1] has as its target T1, long form of human GPR120 (Homo sapiens, UniProt Q5NUL3).
T1 construct: host or cells: PathHunter CHO-K1 GPR120 β-Arrestin Cell Line
Briefly: Human GPR120 DiscoveRx PathHunter Beta-Arrestin assay, Procedure β-arrestin A. The test is classed as cell-based. The settings on record: PathHunter CHO-K1 GPR120 β-Arrestin cell line, 3000 cells per well, read-out: hGPR120 β-arrestin A EC50. Summed up: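 PathHunter CHO-K1 β-arrestin cells expressed long-form GPR120 (Procedure A, 3000 cells/well) or short-form GPR120 (Procedure B, 5000 cells/well). Compounds were serially diluted from 25 µM and incubated 90 min at 37 °C in HBSS/20 mM HEPES/0.1% BSA, pH 7.4. Luminescence was read after 60 min detection at RT; EC50 comes from % activity versus positive control, Hill slope fixed at 1.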

Test [2] concerns the target T2, Human GPR120 short form (Homo sapiens, UniProt Q5NUL3).
T2 construct: expressed in transfected cells
T2 sequence (Q5NUL3 1-361): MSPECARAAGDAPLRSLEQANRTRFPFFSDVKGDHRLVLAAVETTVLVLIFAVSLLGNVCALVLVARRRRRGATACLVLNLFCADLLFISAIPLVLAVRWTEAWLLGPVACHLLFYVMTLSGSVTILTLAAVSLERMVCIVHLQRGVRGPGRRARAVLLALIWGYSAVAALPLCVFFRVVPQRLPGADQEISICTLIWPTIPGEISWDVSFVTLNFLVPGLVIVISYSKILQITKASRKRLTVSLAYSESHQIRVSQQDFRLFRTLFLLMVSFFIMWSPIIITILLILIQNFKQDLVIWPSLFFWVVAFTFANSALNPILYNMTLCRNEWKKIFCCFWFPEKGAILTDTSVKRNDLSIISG
Briefly: Human GPR120 calcium flux assay (FLIPR), Procedure Calcium A. The test is classed as cell-based. Conditions: HEK-293 cells expressing human GPR120 short form, 2500 cells/well; read-out: GPR120 Ca2+ Assay A EC50. In a few lines: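 HEK293 cells stably expressing the short isoform (NM_001195755.1), 2500/well, starved 1 h, then loaded with Fluo-4 NW plus probenecid (30 min 37 °C, 15 min RT). Compound solutions 0.012–100 μM, 0.2% DMSO final; FLIPR read 300 s after addition. EC50 from Fmax−Fmin fitted to variable-slope sigmoid (Hill <2).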
(In general: Calcium flux is commonly read through the fluorescence of an indicator in the cells.)

T1 sequence (Q5NUL3 1-377 isoform Q5NUL3-1): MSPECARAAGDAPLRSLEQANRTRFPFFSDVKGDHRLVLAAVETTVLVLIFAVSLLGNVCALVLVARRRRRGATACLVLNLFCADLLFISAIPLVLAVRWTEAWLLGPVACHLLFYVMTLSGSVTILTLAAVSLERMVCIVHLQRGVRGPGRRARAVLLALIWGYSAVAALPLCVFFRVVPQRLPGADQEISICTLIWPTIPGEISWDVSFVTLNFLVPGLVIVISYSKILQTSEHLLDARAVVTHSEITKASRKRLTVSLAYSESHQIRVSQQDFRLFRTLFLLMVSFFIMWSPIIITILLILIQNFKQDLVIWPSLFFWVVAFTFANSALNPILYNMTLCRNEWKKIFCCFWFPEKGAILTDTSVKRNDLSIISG
T1 sequence (P32121 whole entry partner): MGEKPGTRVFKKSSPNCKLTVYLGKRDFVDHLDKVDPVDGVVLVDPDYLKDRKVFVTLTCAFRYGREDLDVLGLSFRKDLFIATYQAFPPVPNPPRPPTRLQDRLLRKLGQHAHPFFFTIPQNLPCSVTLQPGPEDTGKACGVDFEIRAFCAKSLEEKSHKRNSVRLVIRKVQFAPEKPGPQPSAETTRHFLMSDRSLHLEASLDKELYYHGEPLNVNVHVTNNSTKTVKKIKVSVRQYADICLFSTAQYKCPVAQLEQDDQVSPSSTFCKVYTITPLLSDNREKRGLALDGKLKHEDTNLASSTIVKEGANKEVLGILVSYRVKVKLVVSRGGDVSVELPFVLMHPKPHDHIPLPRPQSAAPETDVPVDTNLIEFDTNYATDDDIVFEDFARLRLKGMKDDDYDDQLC

What is called EC50 is the concentration at which the effect is half-maximal. With `CCc1ccc(-c2sc(C)c(C(F)(F)F)c2COc2c(F)cc(CCCO)cc2F)cc1` [Cpd 32, 3-(4-[[2-(4-ethylphenyl)-5-methyl-4-(trifluoromethyl)thiophen-3-yl]methoxy]-3,5-difluorophenyl)propan-1-ol], the results for the EC50 in test [1] and in test [2] were 31 nM and 48 nM, respectively.
On the same counts, the results for `COc1ccc(-c2snc(Cl)c2COc2c(F)cc(CCC(=O)O)cc2F)cc1` [Cpd 97, 3-(4-[[3-chloro-5-(4-methoxyphenyl)-1,2-thiazol-4-yl]methoxy]-3,5-difluorophenyl)propanoic acid] are 338 nM and 73 nM.
On the same counts, the results for `CCc1ccc(-c2cc(Cl)sc2COc2ccc(CCC(=O)O)c(F)c2F)cc1` [Cpd 11, 3-(4-[[5-chloro-3-(4-ethylphenyl)thiophen-2-yl]methoxy]-2,3-difluorophenyl)propanoic acid] are 222 nM and 126 nM.
In the case of “3-(4-((4-(4-ethylphenyl)thiophen-3-yl)methoxy)-3,5-difluorophenyl)propanoic acid [Cpd 53]”, the values for the EC50 in test [1] and in test [2] were 210 nM and 690 nM, respectively.
For `O=C(O)CCc1cc(F)c(OCc2c(-c3ccc4c(c3)CCO4)csc2C(F)(F)F)c(F)c1` [Cpd 51, 3-(4-((4-(2,3-dihydrobenzofuran-5-yl)-2-(trifluoromethyl)thiophen-3-yl)methoxy)-3,5-difluorophenyl)propanoic acid], the results for the EC50 in test [1] and in test [2] were 213 nM and 172 nM, respectively.
“3-(4-((3-chloro-5-(4-ethylphenyl)isothiazol-4-yl)methoxy)-2,3,5-trifluorophenyl)propan-1-ol [Cpd 140]”: the values for the EC50 in test [1] and in test [2] were 116 nM and 200 nM, respectively.
Regarding `CCc1ccc(-c2nsc(C(F)(F)F)c2COc2c(F)cc(CCCO)c(F)c2F)cc1` [Cpd 238, 3-(4-((3-(4-ethylphenyl)-5-(trifluoromethyl)isothiazol-4-yl)methoxy)-2,3,5-trifluorophenyl)propan-1-ol], the EC50 in test [1] turned out to be 90 nM; in test [2], 521 nM.
Taken in the same sequence, the figures for `CCc1ccc(-c2cc(C)sc2COc2ccc(CCC(=O)O)c(C)c2C)cc1` [Cpd 13, 3-(4-((3-(4-ethylphenyl)-5-methylthiophen-2-yl)methoxy)-2,3-dimethylphenyl)propanoic acid] were 498 nM and 163 nM.
On the same counts, the results for `OCCCc1cc(F)c(OCc2c(-c3ccc(Cl)cc3)csc2C(F)(F)F)c(F)c1` [Cpd 46, 3-(4-[[4-(4-chlorophenyl)-2-(trifluoromethyl)thiophen-3-yl]methoxy]-3,5-difluorophenyl)propan-1-ol] are 125 nM and 165 nM.
On the same counts, the results for `CCc1ccc(-c2sccc2COc2ccc(CCC(=O)O)c(F)c2F)cc1` [Cpd 48, 3-(4-((2-(4-ethylphenyl)thiophen-3-yl)methoxy)-2,3-difluorophenyl)propanoic acid] are 236 nM and 168 nM.
Regarding `CCc1ccc(-c2cc(Cl)sc2COc2ccc(CCC(=O)O)c(C)c2C)cc1` [Cpd 5, 3-(4-[[5-chloro-3-(4-ethylphenyl)thiophen-2-yl]methoxy]-2,3-dimethylphenyl)propanoic acid], the EC50 in test [1] amounted to 191 nM; in test [2], 61 nM.
For `Cc1c(CCC(=O)O)ccc(OCc2c(Cl)nsc2-c2ccc(Cl)cc2)c1C` [Cpd 88, 3-(4-[[3-chloro-5-(4-chlorophenyl)-1,2-thiazol-4-yl]methoxy]-2,3-dimethylphenyl)propanoic acid], the EC50 in test [1] stood at 81 nM; in test [2] it was 67 nM.
With `Cc1snc(-c2ccc(Cl)cc2)c1COc1ccc(CCC(=O)O)c(F)c1F` [Cpd 119, 3-(4-((3-(4-chlorophenyl)-5-methylisothiazol-4-yl)methoxy)-2,3-difluorophenyl)propanoic acid], the results for the EC50 in test [1] and in test [2] were 128 nM and 106 nM, respectively.
For the compound `OCCCc1ccc(OCc2c(-c3ccc(Cl)cc3)nsc2C(F)(F)F)c(F)c1F` [Cpd 132, 3-(4-((3-(4-chlorophenyl)-5-(trifluoromethyl)isothiazol-4-yl)methoxy)-2,3-difluorophenyl)propan-1-ol], the results for the EC50 in test [1] and in test [2] were 122 nM and 130 nM, respectively.
Consider `Cc1c(CCC(=O)O)ccc(OCc2c(-c3ccc(C4CC4)cc3)nsc2C(F)(F)F)c1C` [Cpd 190, 3-(4-((3-(4-cyclopropylphenyl)-5-(trifluoromethyl)isothiazol-4-yl)methoxy)-2,3-dimethylphenyl)propanoic acid], for which the EC50 stood at 379 nM in test [1] and 314 nM in test [2].
Taken in the same sequence, the figures for `CCc1ccc(-c2sccc2COc2ccc(CCC(=O)O)c(C)c2C)cc1` [Cpd 49, 3-(4-((2-(4-ethylphenyl)thiophen-3-yl)methoxy)-2,3-dimethylphenyl)propanoic acid] were 304 nM and 170 nM.

The values are drawn from patent US9067898B1, “Isothiazole derivatives as GPR120 agonists for the treatment of type II diabetes” (Janssen Pharmaceutica NV, priority 2014, dated 2015).
